Molecules are shown by their SMILES.

In this experiment the target is T1, small-conductance Ca2+-activated K+ channels (SK channels, subtype 2) (Homo sapiens, UniProt Q9H2S1).
T1 construct: expressed in transfected cells; host or cells: HEK293
As to the kind of experiment: whole-cell patch-clamp of ionic current through SK2 channels in HEK293 cells (SC100). The format is cell-based. Conditions: concentration that increases the basal current by 100%; HEK293 cells expressing SK2 channels. How it is done: The biological activity was determined as follows. The ionic current through small-conductance Ca^2+-activated K^+ channels (SK channels, subtype 2) was measured using the whole-cell configuration of the patch-clamp technique in a patch-clamp set-up using HEK293 tissue culture cells expressing SK2 channels as described in Hougaard et al., British Journal of Pharmacology 151, 655-665, May 8, 2007, the entire teachings of which are incorporated herein by reference. In one aspect, a compound is defined to be an SK PAM if the compound increases current in this assay, for example, if the SC100 value of the compound is less than or equal to 10 μM as determined by this assay. The SC100 value is defined to be the concentration of compound that increases the basal current by 100%.
On to `CC(=O)N1CCN(c2cc(N(C)C3CCC(F)(F)CC3)nc(-n3nc(C)cc3C)n2)CC1` [Compound 132, 1-(4-(6-((4,4-difluorocyclohexyl)(methyl)amino)-2-(3,5-dimethyl-1H-pyrazol-1-yl)pyrimidin-4-yl)piperazin-1-yl)ethan-1-one], for which the SC100 entry is “++ (++ means 200 nM-1000 nM)”.
Take `Cc1cc(C)n(-c2nc(NC3CCC(F)(F)CC3)cc(NC3CCCN(C)C3=O)n2)n1` (stereo not drawn) [Compound 133, 3-((6-((4,4-difluorocyclohexyl)amino)-2-(3,5-dimethyl-1H-pyrazol-1-yl)pyrimidin-4-yl)amino)-1-methylpiperidin-2-one]: the SC100 entry was “+ (+ means >1 uM)”.
Turning to `CC(=O)N1CCN(c2cc(NC3CCC(F)(F)CC3)nc(-n3nc(C)cc3C)c2)CC1` [Compound 134, 1-(4-(2-((4,4-difluorocyclohexyl)amino)-6-(3,5-dimethyl-1H-pyrazol-1-yl)pyridin-4-yl)piperazin-1-yl)ethan-1-one], the SC100 result was “++ (++ means 200 nM-1000 nM)”.
In the case of `Cc1cc(C)n(-c2nc(NC3CCC(F)(F)CC3)cc(C(C)O)n2)n1` (stereo not drawn) [Compound 136] it was “++ (++ means 200 nM-1000 nM)”; in that of `Cc1cc(C)n(-c2nc(CO)cc(NC3CCC(F)(F)CC3)n2)n1` [Compound 137, (6-((4,4-difluorocyclohexyl)amino)-2-(3,5-dimethyl-1H-pyrazol-1-yl)pyrimidin-4-yl)methanol], “++ (++ means 200 nM-1000 nM)”.
For the compound `Cc1ccn(-c2nc(NC3CCC(F)(F)CC3)cc(N3CC(C)(O)C3)n2)n1` [Compound 140, 1-(6-((4,4-difluorocyclohexyl)amino)-2-(3-methyl-1H-pyrazol-1-yl)pyrimidin-4-yl)-3-methylazetidin-3-ol], the SC100 result is “+ (+ means >1 uM)”.
As for `Cc1ccn(-c2nc(NC3CCC(F)(F)CC3)cc(NC3COC3)n2)n1` [Compound 141, N4-(4,4-difluorocyclohexyl)-2-(3-methyl-1H-pyrazol-1-yl)-N6-(oxetan-3-yl)pyrimidine-4,6-diamine], the SC100 entry is listed as “++ (++ means 200 nM-1000 nM)”.
As to `Cc1cc(C)n(-c2nc(NC3CCC(F)(F)CC3)cc(C(F)F)n2)n1` [Compound 142, N-(4,4-difluorocyclohexyl)-6-(difluoromethyl)-2-(3,5-dimethyl-1H-pyrazol-1-yl)pyrimidin-4-amine], the SC100 entry is listed as “+ (+ means >1 uM)”.
On to `Cc1ccn(-c2nc(NC3CCC(F)(F)CC3)cc(N3CC(N(C)C)C3)n2)n1` [Compound 143, N-(4,4-difluorocyclohexyl)-6-(3-(dimethylamino)azetidin-1-yl)-2-(3-methyl-1H-pyrazol-1-yl)pyrimidin-4-amine], for which the SC100 result is “++ (++ means 200 nM-1000 nM)”.
On to `Cc1cc(NC2CCC(C(F)(F)F)CC2)nc(-n2ccc(C)n2)n1` (stereo not drawn) [Compound 144, 6-methyl-2-(3-methyl-1H-pyrazol-1-yl)-N-(4-(trifluoromethyl)cyclohexyl)pyrimidin-4-amine], for which the SC100 entry is “+ (+ means >1 uM)”.
In the case of `Cc1cc(C)n(-c2nc(NCc3ncco3)cc(NC3CCC(F)(F)CC3)n2)n1` [Compound 145, N4-(4,4-difluorocyclohexyl)-2-(3,5-dimethyl-1H-pyrazol-1-yl)-N6-(oxazol-2-ylmethyl)pyrimidine-4,6-diamine], the SC100 entry is recorded as “+ (+ means >1 uM)”.
With `Cc1ccn(-c2nc(NCC(C)(C)C)cc(NC3CCC(F)(F)CC3)n2)n1` [Compound 146, N4-(4,4-difluorocyclohexyl)-2-(3-methyl-1H-pyrazol-1-yl)-N6-neopentylpyrimidine-4,6-diamine], the SC100 result is listed as “++ (++ means 200 nM-1000 nM)”.
For the compound `Cc1ccn(-c2nc(NC3CCC(F)(F)CC3)cc(NC3CC(F)(F)C3)n2)n1` [Compound 147, N4-(3,3-difluorocyclobutyl)-N6-(4,4-difluorocyclohexyl)-2-(3-methyl-1H-pyrazol-1-yl)pyrimidine-4,6-diamine], the SC100 result is given as “++ (++ means 200 nM-1000 nM)”.
As for `Cc1cc(NC2CCC(F)(F)CC2)nc(-n2ccc(C)n2)n1` [Compound 148, N-(4,4-difluorocyclohexyl)-6-methyl-2-(3-methyl-1H-pyrazol-1-yl)pyrimidin-4-amine], the SC100 result was “++ (++ means 200 nM-1000 nM)”.
Take `CC(=O)N1CCN(c2cc(NC3CCC(C(F)(F)F)CC3)nc(-n3nc(C)cc3C)n2)CC1` (stereo not drawn) [Compound 149, 1-(4-(2-(3,5-dimethyl-1H-pyrazol-1-yl)-6-((4-(trifluoromethyl)cyclohexyl)amino)pyrimidin-4-yl)piperazin-1-yl)ethan-1-one]: the SC100 entry is “++ (++ means 200 nM-1000 nM)”.
As to `Cc1cc(NC2CCC(F)(F)C2)nc(-n2ccc(C)n2)n1` (stereo not drawn) [Compound 150, N-(3,3-difluorocyclopentyl)-6-methyl-2-(3-methyl-1H-pyrazol-1-yl)pyrimidin-4-amine], the SC100 entry is “+ (+ means >1 uM)”.
Consider `Cc1ccn(-c2nc(NC3CCC(F)(F)CC3)cc(OC3CN(C(=O)OC(C)(C)C)C3)n2)n1` [Compound 151, tert-butyl 3-((6-((4,4-difluorocyclohexyl)amino)-2-(3-methyl-1H-pyrazol-1-yl)pyrimidin-4-yl)oxy)azetidine-1-carboxylate], for which the SC100 result is listed as “++ (++ means 200 nM-1000 nM)”.
`Cc1cc(C)n(-c2nc(NC3CCC(F)(F)CC3)cc(C(C)(C)O)n2)n1` [Compound 152, 2-(6-((4,4-difluorocyclohexyl)amino)-2-(3,5-dimethyl-1H-pyrazol-1-yl)pyrimidin-4-yl)propan-2-ol]: the SC100 result is on record as “+ (+ means >1 uM)”.
In the case of `Cc1ccn(-c2cc(S(C)(=O)=O)cc(NC3CCC(F)(F)CC3)n2)n1` [Compound 153, N-(4,4-difluorocyclohexyl)-6-(3-methyl-1H-pyrazol-1-yl)-4-(methylsulfonyl)pyridin-2-amine] it was “+ (+ means >1 uM)”; in that of `Cc1cc(C)n(-c2cccc(NC3CCC(F)(F)CC3)n2)n1` [Compound 154, N-(4,4-difluorocyclohexyl)-6-(3,5-dimethyl-1H-pyrazol-1-yl)pyridin-2-amine], “+ (+ means >1 uM)”.
As to `Cc1ccn(-c2nc(NC3CCC(F)(F)CC3)cc(N3CC4C(N)C4C3)n2)n1` (stereo not drawn) [Compound 155, 3-(6-((4,4-difluorocyclohexyl)amino)-2-(3-methyl-1H-pyrazol-1-yl)pyrimidin-4-yl)-3-azabicyclo[3.1.0] hexan-6-amine], the SC100 entry was “+ (+ means >1 uM)”.
With `Cc1ccn(-c2nc(NC3CCC(F)(F)CC3)cc(NC3CC(C)(C)C3)n2)n1` [Compound 156, N4-(4,4-difluorocyclohexyl)-N6-(3,3-dimethylcyclobutyl)-2-(3-methyl-1H-pyrazol-1-yl)pyrimidine-4,6-diamine], the SC100 result is given as “++ (++ means 200 nM-1000 nM)”.
Take `Cc1ccn(-c2nc(NCC3(N(C)C)CCC3)cc(NC3CCC(F)(F)CC3)n2)n1` [Compound 157, N4-(4,4-difluorocyclohexyl)-N6-((1-(dimethylamino)cyclobutyl)methyl)-2-(3-methyl-1H-pyrazol-1-yl)pyrimidine-4,6-diamine]: the SC100 result was “++ (++ means 200 nM-1000 nM)”.
As for `CCN1CCCCC(Nc2cc(NC3CCC(F)(F)CC3)nc(-n3ccc(C)n3)n2)C1` (stereo not drawn) [Compound 158, N4-(4,4-difluorocyclohexyl)-N6-(1-ethylazepan-3-yl)-2-(3-methyl-1H-pyrazol-1-yl)pyrimidine-4,6-diamine], the entry is “++ (++ means 200 nM-1000 nM)”.

The record behind these values is US10774064B2 (Cadent Therapeutics, Inc., priority 2016, dated 2020).
